pIC50: −log10 of the molar value. Where two headings read alike, the source gives them in different places.
Assays:
human SCD1 = biological target: T1, human SCD1 (Homo sapiens, UniProt O00767); assay: Growth inhibition of yeast strain expressing human SCD1 as sole desaturase (OLE1 deleted), OD600 readout; assay type: cell-based
T1 construct: expressed in transfected cells; host or cells: yeast strain with OLE1 deleted, plasmid-borne human SCD1 (selected in SD-Ura)
T1 sequence (O00767 1-359): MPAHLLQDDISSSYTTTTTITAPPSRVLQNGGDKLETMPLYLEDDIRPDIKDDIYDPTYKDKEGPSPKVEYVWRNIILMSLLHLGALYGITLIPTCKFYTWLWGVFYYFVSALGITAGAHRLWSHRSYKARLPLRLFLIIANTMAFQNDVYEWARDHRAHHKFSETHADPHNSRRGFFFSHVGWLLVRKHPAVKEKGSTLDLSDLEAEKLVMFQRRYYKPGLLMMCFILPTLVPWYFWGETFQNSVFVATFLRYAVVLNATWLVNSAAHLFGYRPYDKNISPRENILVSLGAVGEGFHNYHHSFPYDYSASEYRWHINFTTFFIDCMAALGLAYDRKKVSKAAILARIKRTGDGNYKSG

human SCD5 = biological target: T2, human SCD5 (Homo sapiens, UniProt Q86SK9); assay: Growth inhibition of yeast strain expressing human SCD5 as sole desaturase (OLE1 deleted), OD600 readout; assay type: cell-based
T2 construct: expressed in transfected cells; host or cells: yeast strain with OLE1 deleted, plasmid-borne human SCD5 (selected in SD-Ura)
T2 sequence (Q86SK9 1-330): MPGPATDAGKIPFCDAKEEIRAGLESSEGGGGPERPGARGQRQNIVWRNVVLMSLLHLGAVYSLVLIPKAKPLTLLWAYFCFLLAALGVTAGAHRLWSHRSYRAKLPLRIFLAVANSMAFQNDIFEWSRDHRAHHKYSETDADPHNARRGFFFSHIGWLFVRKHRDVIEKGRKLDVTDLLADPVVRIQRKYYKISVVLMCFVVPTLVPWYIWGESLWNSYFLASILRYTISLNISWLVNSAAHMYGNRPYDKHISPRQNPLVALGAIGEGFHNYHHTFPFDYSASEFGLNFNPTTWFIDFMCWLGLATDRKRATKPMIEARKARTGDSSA

[1] = yeast strain expressing human SCD1 as sole desaturase, growth (OD600) after 40 h at 30° C., read-out: SCD1 IC50
[2] = yeast strain expressing human SCD5 as sole desaturase, growth (OD600) after 40 h at 30° C., read-out: SCD5 IC50

pIC50 (human SCD1; [1]) | pIC50 (human SCD5; [2]) | SMILES | pIC50 (human SCD5; SCD5 IC50) | pIC50 (human SCD1; SCD1 IC50)
8.00 | 8.00 | O=C(Nc1ccc(Cc2cc(F)cc(F)c2)cn1)c1ncc(CO)cn1 [Compound 559] |  | 
5.97 | 7.59 | COc1cc(C(=O)Nc2ccc(Cc3cc(F)cc(F)c3)cn2)nn(C)c1=O [Compound 596] |  | 
< 4.35 | < 4.35 | Cn1cc(C(=O)Nc2nnc(Cc3cccc(Cl)c3)s2)ccc1=O [Compound 462] |  | 
5.36 | 5.92 | N#Cc1cc(C(=O)Nc2ccc(Cc3cc(F)cc(F)c3)cn2)cnc1C#N [Compound 612] |  | 
4.92 | 6.17 | COCc1ncc(C(=O)Nc2ccc(Cc3cccc(Cl)c3)cn2)cn1 [Compound 479] |  | 
< 4.35 | 5.99 | CN1N=C(C(=O)Nc2ccc(Cc3cccc(F)c3)cn2)CCC1=O [Compound 6, N-(5-(3-fluorobenzyl)pyridin-2-yl)-1-methyl-6-oxo-1,4,5,6-tetrahydropyridazine-3-carboxamide] |  | 
< 4.35 | 5.57 | CN1N=C(C(=O)Nc2ncc(Cc3ccc(C#N)cc3)s2)CCC1=O [Compound 341] |  | 
< 4.35 | 6.56 | CNC(=O)c1ccc(C(=O)Nc2ccc(Cc3cccc(Cl)c3)cn2)cn1 [Compound 592] |  | 
< 4.35 | < 4.35 | Cc1cncc(Cc2ccc(NC(=O)c3ccc(=O)n(C)c3)nc2)c1 [Compound 450] |  | 
< 4.35 | < 4.35 | COc1cc(Cc2cccc(Cl)c2)cnc1NC(=O)C1=NN(C)C(=O)CC1 [Compound 387] |  | 
5.28 | 5.12 | Cn1ncc2cc(-c3ccc(Cc4cccc(F)c4)cn3)ccc21 [Compound 153, 5-(5-(3-fluorobenzyl)pyridin-2-yl)-1-methyl-1H-indazole] |  | 
5.13 | 5.30 | CN(Cc1ccc(C(=O)Nc2ccc(Cc3cccc(Cl)c3)cn2)cn1)C(=O)OC(C)(C)C [Compound 348] |  | 
6.80 | 6.72 | CC(O)c1ccc(C(=O)Nc2ccc(Cc3ccc(F)c(F)c3)cn2)nn1 (stereo not drawn) [Compound 530] |  | 
6.28 | 7.85 | Cc1ccc(C(=O)Nc2ccc(Cc3cc(F)cc(F)c3)cn2)nn1 [Compound 484] |  | 
 |  | COc1cc(Cl)cc(Cc2ccc(NC(=O)c3ccc(=O)n(C)c3)nc2)c1 [Compound 50, N-(5-(3-chloro-5-methoxybenzyl)pyridin-2-yl)-1-methyl-6-oxo-1,6-dihydropyridine-3-carboxamide] | 7.70 | 5.82
8.00 | 8.00 | O=C(Nc1ccc(CO)nc1)c1ccc(Cc2cccc(F)c2)cn1 [Compound 125, 5-(3-Fluorobenzyl)-N-(6-(hydroxymethyl)pyridin-3-yl)picolinamide] |  | 
6.01 | 5.92 | CC(=O)c1ccc(C(=O)Nc2ccc(Cc3ccc(F)c(F)c3)cn2)nc1 [Compound 507] |  | 
< 4.35 | < 4.35 | CO[C@@H]1CN[C@H](C(=O)Nc2ccc(Cc3cccc(F)c3)cn2)C1 [Compound 447] |  | 
7.43 | 8.00 | Cn1cc(C(=O)Nc2ccc(Cc3cc(F)c(F)c(Cl)c3)cn2)ccc1=O [Compound 543] |  | 
< 4.35 | 6.24 | CN1N=C(C(=O)Nc2ccc(COc3ccc(F)cc3F)cn2)CCC1=O [Compound 607] |  | 
< 4.35 | < 4.35 | CN1N=C(C(=O)Nc2nc(Cc3cccc(F)c3)ns2)CCC1=O [Compound 408] |  | 

pIC50 (human SCD1; [1]) | pIC50 (human SCD5; [2]) | SMILES | pIC50 (human SCD5; SCD5 IC50) | pIC50 (human SCD1; SCD1 IC50)
6.66 | 6.96 | N#Cc1cc(F)cc(Cc2ccc(NC(=O)c3ccnnc3)nc2)c1 [Compound 656] |  | 
6.72 | 7.52 | N#Cc1cc(F)cc(Cc2ccc(NC(=O)c3cncc(CO)c3)nc2)c1 [Compound 628] |  | 
8.00 | 8.00 | O=C(Nc1ccc(Cc2cccc(F)c2)cn1)c1cc(CO)ccn1 [Compound 497] |  | 
< 4.35 | 5.64 | Cn1nc(C(=O)Nc2ccc(Oc3cc(F)cc(F)c3)cn2)ccc1=O [Compound 573] |  | 
5.79 | 6.06 | Cn1nc(C(=O)Nc2nc(C#N)c(Cc3cccc(F)c3)s2)ccc1=O [Compound 233, N-(4-cyano-5-(3-fluorobenzyl)thiazol-2-yl)-1-methyl-6-oxo-1,6-dihydropyridazine-3-carboxamide] |  | 
5.57 | 5.28 | N#Cc1ccc(C(=O)Nc2ccc(CNc3cccc(Cl)c3)cn2)nc1 [Compound 498] |  | 
< 4.35 | 5.28 | CN(c1ccc(NC(=O)c2ccc(=O)n(C)n2)nc1)c1cccc(F)c1 [Compound 301] |  | 
< 4.35 | 4.55 | COC(c1cccc(F)c1)c1cnc(NC(=O)C2=NN(C)C(=O)CC2)s1 (stereo not drawn) [Compound 204, N-(5-((3-fluorophenyl)(methoxy)methyl)thiazol-2-yl)-1-methyl-6-oxo-1,4,5,6-tetrahydropyridazine-3-carboxamide] |  | 
8.00 | 8.00 | O=C(Nc1ccc(Cc2cc(F)cc(F)c2)cn1)c1cnnc(Cl)c1 [Compound 657] |  | 
5.27 | 6.24 | Cn1cc(C(=O)Nc2ccc(COc3cccc(Cl)c3)nn2)ccc1=O [Compound 259] |  | 
< 4.35 | < 4.35 | CN1N=C(C(=O)Nc2ccc(Cc3ccc(C4CC4)nc3)cn2)CCC1=O [Compound 392] |  | 
7.00 | 7.70 | Cn1cc(C(=O)Nc2ccc(Cc3ccc(F)c(F)c3)cn2)cn1 [Compound 314] |  | 
6.77 | 7.25 | O=C(Nc1ccc(Cc2ccc(F)c(F)c2)cn1)c1ccncc1 [Compound 650] |  | 
< 4.35 | < 4.35 | Cn1nc(C(=O)Nc2cncc(Cc3cccc(Cl)c3)c2)ccc1=O [Compound 426] |  | 
6.28 | 8.00 | Cn1nc(C(=O)Nc2ccc(Cc3ccc(F)c(F)c3Cl)cn2)ccc1=O [Compound 571] |  | 
5.24 | 6.96 | Cn1cc(NC(=O)c2ccc(COc3ccc(F)c(Cl)c3)cn2)ccc1=O [Compound 488] |  | 
< 4.35 | 5.05 | Cc1cc(NC(=O)C2=NN(C)C(=O)CC2)ncc1Cc1cccc(Cl)c1 [Compound 123, N-(5-(3-chlorobenzyl)-4-methylpyridin-2-yl)-1-methyl-6-oxo-1,4,5,6-tetrahydropyridazine-3-carboxamide] |  | 
7.22 | 8.00 | Cn1nc(CO)cc1C(=O)Nc1ccc(Cc2cccc(F)c2)cn1 [Compound 540] |  | 
< 4.35 | 4.49 | Cn1cc(C(=O)Nc2ccc(Nc3cccc(F)c3)cn2)ccc1=O [Compound 349] |  | 
 |  | Cn1cc(C(=O)Nc2ccc(Cc3ccc(F)c(Cl)c3)cn2)ccc1=O [Compound 60, N-(5-(3-chloro-4-fluorobenzyl)pyridin-2-yl)-1-methyl-6-oxo-1,6-dihydropyridine-3-carboxamide] | 6.19 | 5.36

SMILES | pIC50 (human SCD1; [1]) | pIC50 (human SCD5; [2]) | pIC50 (human SCD5; SCD5 IC50) | pIC50 (human SCD1; SCD1 IC50)
Cn1nc(C(=O)Nc2ccc(CNc3cccc(Cl)c3)cn2)ccc1=O [Compound 174, N-(5-((3-Chlorophenylamino)methyl)pyridin-2-yl)-1-methyl-6-oxo-1,6-dihydropyridazine-3-carboxamide] | 5.12 | 7.10 |  | 
CCn1cc(C(=O)Nc2ccc(Cc3ccc(F)c(Cl)c3)cn2)ccc1=O [Compound 82, N-(5-(3-chloro-4-fluorobenzyl)pyridin-2-yl)-1-ethyl-6-oxo-1,6-dihydropyridine-3-carboxamide] | < 4.35 | 7.52 |  | 
CN1CC(C(=O)Nc2ncc(Cc3cccc(F)c3)s2)CCC1=O (stereo not drawn) [Compound 223, N-(5-(3-fluorobenzyl)thiazol-2-yl)-1-methyl-6-oxopiperidine-3-carboxamide] | < 4.35 |  | 4.95 | 
CN1N=C(C(=O)Nc2ncc(Cc3ccccc3F)s2)CCC1=O [Compound 206, N-(5-(2-fluorobenzyl)thiazol-2-yl)-1-methyl-6-oxo-1,4,5,6-tetrahydropyridazine-3-carboxamide] | 5.47 | 5.60 |  | 
CN1N=C(C(=O)Nc2ccc(Oc3cccc(Cl)c3)cn2)CCC1=O [Compound 157, N-(5-(3-chlorophenoxy)pyridin-2-yl)-1-methyl-6-oxo-1,4,5,6-tetrahydropyridazine-3-carboxamide] | < 4.35 | 5.18 |  | 
Cn1nc(C(=O)Nc2ccc(Cc3cc(F)cc(F)c3)cn2)ccc1=O [Example 37, N-(5-(3,5-difluorobenzyl)pyridin-2-yl)-1-methyl-6-oxo-1,6-dihydropyridazine-3-carboxamide] | 4.99 | 7.30 |  | 
O=C(Nc1ncc(Cc2cccc(F)c2)s1)c1ccc(=O)n(CCF)n1 [Compound 226, N-(5-(3-fluorobenzyl)thiazol-2-yl)-1-(2-fluoroethyl)-6-oxo-1,6-dihydropyridazine-3-carboxamide] | 5.14 | 5.24 |  | 

Source: patent publication US20230078764A1 (Yumanity Therapeutics, Inc., priority 2019, published 2023)
